From patent US11981658B2, “Substituted aminopyridine compounds as EGFR inhibitors” (YUHAN CORPORATION, priority 2021, dated 2024)
Structures can show the parent of a compound that is named as a salt. Where two headings read alike, the source gives them in different places.

Assays:
[1] = target: EGFR L858R/C797S (Homo sapiens, UniProt P00533, C797S/L858R); assay: Biochemical EGFR kinase inhibition assay (Lance Ultra TR-FRET), double mutant L858R/C797S
In short: (§1)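 In this biochemical assay, phosphorylation after a one-hour room-temperature reaction was detected with europium-labelled anti-phosphopeptide antibody at 2 nM final concentration.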

[2] = target: EGFR L858R/T790M/C797S (Homo sapiens, UniProt P00533, C797S/L858R/T790M); assay: Biochemical EGFR kinase inhibition assay (Lance Ultra TR-FRET), triple mutant L858R/T790M/C797S
Chain of EGFR L858R/T790M/C797S (P00533 25-1210 T790M/C797S/L858R): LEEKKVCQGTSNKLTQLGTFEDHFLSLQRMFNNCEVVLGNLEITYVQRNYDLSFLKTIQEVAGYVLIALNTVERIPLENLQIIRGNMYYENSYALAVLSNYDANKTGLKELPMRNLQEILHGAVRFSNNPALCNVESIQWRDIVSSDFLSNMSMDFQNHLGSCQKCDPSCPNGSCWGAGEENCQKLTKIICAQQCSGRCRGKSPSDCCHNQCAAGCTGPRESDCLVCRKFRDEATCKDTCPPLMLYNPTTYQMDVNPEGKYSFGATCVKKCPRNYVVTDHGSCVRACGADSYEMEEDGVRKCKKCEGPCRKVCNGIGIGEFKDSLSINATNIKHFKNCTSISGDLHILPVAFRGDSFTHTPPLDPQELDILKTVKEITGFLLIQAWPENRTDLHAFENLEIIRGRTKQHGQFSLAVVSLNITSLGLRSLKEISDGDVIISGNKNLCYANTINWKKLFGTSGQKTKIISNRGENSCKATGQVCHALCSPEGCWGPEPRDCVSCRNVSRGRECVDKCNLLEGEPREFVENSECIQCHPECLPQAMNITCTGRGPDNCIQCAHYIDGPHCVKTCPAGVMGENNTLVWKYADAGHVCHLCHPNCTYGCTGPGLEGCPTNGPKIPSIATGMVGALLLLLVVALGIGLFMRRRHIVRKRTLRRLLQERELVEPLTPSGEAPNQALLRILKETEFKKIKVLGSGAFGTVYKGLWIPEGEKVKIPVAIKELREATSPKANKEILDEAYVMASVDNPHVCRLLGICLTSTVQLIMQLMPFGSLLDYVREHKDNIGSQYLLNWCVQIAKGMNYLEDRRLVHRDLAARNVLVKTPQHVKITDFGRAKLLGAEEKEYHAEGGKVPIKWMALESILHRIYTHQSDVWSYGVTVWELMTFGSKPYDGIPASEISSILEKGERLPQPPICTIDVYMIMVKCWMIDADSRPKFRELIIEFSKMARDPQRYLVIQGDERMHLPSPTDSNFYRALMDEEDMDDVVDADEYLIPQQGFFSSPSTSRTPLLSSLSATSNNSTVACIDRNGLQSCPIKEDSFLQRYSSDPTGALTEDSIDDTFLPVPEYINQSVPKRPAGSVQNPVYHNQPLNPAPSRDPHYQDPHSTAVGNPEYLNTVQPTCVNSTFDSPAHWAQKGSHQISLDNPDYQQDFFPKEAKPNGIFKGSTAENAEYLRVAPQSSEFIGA
In short: as §1

[3] = target: EGFR Del19/T790M/C797S (Homo sapiens, UniProt P00533, C797S/DEL746-750/T790M); assay: Biochemical EGFR kinase inhibition assay (Lance Ultra TR-FRET), triple mutant del19/T790M/C797S
Chain of EGFR Del19/T790M/C797S (P00533 with tags, fused parts or gaps DEL746-750/T790M/C797S): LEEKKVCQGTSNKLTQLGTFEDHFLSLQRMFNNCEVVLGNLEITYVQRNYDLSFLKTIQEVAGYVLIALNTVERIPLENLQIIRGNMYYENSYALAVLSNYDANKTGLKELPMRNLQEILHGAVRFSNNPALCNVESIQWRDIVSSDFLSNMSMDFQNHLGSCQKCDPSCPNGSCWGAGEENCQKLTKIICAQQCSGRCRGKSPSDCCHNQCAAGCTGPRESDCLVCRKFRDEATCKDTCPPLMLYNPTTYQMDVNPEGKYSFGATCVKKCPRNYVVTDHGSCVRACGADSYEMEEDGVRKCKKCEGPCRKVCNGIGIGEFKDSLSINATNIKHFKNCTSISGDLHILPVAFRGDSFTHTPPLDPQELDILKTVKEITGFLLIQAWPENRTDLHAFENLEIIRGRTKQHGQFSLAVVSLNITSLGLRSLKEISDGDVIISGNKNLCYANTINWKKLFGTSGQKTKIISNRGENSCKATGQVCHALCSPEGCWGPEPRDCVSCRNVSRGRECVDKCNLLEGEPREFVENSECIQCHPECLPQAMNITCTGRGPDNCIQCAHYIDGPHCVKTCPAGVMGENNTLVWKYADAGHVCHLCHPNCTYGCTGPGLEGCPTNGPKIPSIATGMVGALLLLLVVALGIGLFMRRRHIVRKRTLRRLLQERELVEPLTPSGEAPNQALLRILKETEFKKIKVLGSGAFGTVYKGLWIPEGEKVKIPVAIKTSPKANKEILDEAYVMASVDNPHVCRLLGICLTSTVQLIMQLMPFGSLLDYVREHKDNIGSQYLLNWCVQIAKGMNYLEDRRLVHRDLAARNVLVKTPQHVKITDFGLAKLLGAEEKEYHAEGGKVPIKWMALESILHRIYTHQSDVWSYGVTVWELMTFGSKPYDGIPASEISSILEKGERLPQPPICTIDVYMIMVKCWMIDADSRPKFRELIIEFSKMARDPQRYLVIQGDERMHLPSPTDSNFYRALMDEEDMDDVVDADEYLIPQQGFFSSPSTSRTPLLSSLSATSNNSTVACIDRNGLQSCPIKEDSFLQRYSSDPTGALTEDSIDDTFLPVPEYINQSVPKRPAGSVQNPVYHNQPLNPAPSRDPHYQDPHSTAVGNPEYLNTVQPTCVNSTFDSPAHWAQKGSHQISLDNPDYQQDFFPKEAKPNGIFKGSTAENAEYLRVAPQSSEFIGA
In short: as §1

[4] = target: EGFR Del19/C797S (Homo sapiens, UniProt P00533, C797S/DEL746-750); assay: Biochemical EGFR kinase inhibition assay (Lance Ultra TR-FRET), double mutant del19/C797S
In short: as §1

[5] = target: EGFR wildtype (WT) (Homo sapiens, UniProt P00533); assay: Biochemical EGFR kinase inhibition assay (Lance Ultra TR-FRET), wildtype
Chain of EGFR wildtype (WT) (P00533 25-1210): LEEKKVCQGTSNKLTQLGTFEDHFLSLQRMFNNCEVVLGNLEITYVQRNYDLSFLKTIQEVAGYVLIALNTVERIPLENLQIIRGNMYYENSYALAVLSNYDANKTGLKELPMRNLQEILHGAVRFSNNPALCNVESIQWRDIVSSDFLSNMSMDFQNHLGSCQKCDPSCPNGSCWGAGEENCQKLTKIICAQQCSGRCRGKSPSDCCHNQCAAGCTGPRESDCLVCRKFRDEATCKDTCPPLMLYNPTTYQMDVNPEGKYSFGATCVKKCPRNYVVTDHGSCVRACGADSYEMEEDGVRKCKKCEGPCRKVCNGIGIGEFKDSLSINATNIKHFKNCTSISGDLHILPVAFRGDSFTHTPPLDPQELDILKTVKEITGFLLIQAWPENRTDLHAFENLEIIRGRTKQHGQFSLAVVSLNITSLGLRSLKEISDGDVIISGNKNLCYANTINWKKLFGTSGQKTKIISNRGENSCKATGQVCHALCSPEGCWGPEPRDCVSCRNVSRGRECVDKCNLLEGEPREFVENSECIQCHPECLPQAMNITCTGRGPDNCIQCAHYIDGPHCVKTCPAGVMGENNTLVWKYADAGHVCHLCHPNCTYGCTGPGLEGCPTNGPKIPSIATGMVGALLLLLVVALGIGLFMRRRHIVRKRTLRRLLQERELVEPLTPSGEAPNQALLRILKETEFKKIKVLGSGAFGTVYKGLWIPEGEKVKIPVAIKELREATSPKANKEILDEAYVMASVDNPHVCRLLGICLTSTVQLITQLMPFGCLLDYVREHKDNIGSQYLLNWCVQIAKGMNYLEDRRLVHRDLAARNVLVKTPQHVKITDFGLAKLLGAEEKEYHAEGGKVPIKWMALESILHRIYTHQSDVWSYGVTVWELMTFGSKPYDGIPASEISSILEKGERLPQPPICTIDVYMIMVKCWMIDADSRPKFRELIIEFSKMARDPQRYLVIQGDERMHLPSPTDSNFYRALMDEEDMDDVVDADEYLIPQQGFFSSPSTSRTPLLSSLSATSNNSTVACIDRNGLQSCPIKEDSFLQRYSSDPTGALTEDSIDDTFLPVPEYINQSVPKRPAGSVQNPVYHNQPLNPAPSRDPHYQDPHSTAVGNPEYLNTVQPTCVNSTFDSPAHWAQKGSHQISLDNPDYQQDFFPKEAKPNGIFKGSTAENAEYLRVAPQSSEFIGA
In short: as §1

[6] = IC50 L858R/C797S (nM), 100 μM ATP
[7] = Km ATP, read-out: IC50 L858R/C797S (nM) Km ATP
[8] = IC50 L858R/T790M/C797S (nM), 100 μM ATP
[9] = Km ATP, read-out: IC50 L858R/T790M/C797S (nM) Km ATP
[10] = IC50 Del19/T790M/C797S (nM), 100 μM ATP
[11] = Km ATP, read-out: IC50 Del19/T790M/C797S (nM) Km ATP
[12] = IC50 Del19/C797S (nM), 100 μM ATP
[13] = Km ATP, read-out: IC50 Del19/C797S (nM) Km ATP
[14] = Km ATP, read-out: IC50 WT (nM) Km ATP
[15] = ATP at Km, read-out: IC50 L858R/C797S (nM), Km ATP
[16] = ATP at Km, read-out: IC50 L858R/T790M/C797S (nM), Km ATP
[17] = ATP at Km, read-out: IC50 Del19/T790M/C797S (nM), Km ATP
[18] = ATP at Km, read-out: IC50 Del19/C797S (nM), Km ATP
[19] = ATP at Km, read-out: IC50 WT (nM), Km ATP
[20] = Km ATP, read-out: IC50 L858R/C797S (nM), Km ATP
[21] = Km ATP, read-out: IC50 L858R/T790M/C797S (nM), Km ATP
[22] = Km ATP, read-out: IC50 Del19/T790M/C797S (nM), Km ATP
[23] = Km ATP, read-out: IC50 Del19/C797S (nM), Km ATP
[24] = Km ATP, read-out: IC50 WT (nM), Km ATP

Chain of EGFR L858R/C797S (P00533 25-1210 C797S/L858R): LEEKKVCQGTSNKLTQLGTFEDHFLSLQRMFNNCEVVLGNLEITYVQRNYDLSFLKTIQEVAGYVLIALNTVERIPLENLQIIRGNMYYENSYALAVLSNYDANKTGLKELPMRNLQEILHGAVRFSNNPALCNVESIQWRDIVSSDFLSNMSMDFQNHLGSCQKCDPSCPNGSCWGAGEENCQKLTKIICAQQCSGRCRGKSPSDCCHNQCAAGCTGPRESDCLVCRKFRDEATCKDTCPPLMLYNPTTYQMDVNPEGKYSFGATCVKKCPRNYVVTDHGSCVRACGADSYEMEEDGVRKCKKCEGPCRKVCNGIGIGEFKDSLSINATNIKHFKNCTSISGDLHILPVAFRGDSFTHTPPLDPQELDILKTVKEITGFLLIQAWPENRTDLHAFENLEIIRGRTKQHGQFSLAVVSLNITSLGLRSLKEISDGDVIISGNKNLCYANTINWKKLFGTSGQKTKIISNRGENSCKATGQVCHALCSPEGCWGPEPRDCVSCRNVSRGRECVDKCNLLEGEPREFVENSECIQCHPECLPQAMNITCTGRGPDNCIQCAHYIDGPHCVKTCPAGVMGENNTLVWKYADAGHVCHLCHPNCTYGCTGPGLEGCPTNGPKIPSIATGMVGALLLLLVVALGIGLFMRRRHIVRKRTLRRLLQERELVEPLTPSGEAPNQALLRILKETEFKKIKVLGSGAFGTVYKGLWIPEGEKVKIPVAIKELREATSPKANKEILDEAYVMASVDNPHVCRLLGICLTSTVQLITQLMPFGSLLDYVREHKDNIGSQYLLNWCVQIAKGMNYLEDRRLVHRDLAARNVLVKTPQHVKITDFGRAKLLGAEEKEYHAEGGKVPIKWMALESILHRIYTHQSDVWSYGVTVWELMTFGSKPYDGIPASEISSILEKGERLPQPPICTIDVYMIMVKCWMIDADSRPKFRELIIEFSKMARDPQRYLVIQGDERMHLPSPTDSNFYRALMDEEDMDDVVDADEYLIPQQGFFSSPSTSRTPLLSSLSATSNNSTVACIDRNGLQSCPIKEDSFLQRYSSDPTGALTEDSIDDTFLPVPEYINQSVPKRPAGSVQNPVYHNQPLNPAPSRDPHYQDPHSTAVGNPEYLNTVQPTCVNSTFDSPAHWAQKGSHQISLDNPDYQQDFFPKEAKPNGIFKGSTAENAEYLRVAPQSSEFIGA

CN(C)C(C)(C)CNC1CCN(c2cc(Nc3ccnc(-c4cnn(S(=O)(=O)C5CC5)c4)n3)ncc2C#Cc2cnn(C)c2)CC1 [Example 134, N^4-(1-(2-((2-(1-(Cyclopropylsulfonyl)-1H-pyrazol-4-yl)pyrimidin-4-yl)amino)-5-((1-methyl-1H-pyrazol-4-yl)ethynyl)pyridin-4-yl)piperidin-4-yl)-N^2,N^2,2-trimethylpropane-1,2-diamine]
IC50 [1, 6]: 121 nM
IC50 [1, 7]: 5.6 nM
IC50 [2, 8]: 0.9 nM
IC50 [2, 9]: 0.1 nM
IC50 [3, 10]: 0.4 nM
IC50 [3, 11]: 0.4 nM
IC50 [4, 12]: 2.3 nM
IC50 [4, 13]: 1.5 nM
IC50 ([5]; IC50 WT (nM), 100 μM ATP): > 10000 nM
IC50 [5, 14]: 40.5 nM

CN(C)CC1(F)CCN(c2cc(Nc3ccnc(-c4cnn(S(=O)(=O)C5CC5)c4)n3)ncc2C#Cc2cnn(C)c2)CC1 [Example 293, 2-(1-(Cyclopropylsulfonyl)-1H-pyrazol-4-yl)-N-(4-(4-((dimethylamino)methyl)-4-fluoropiperidin-1-yl)-5-((1-methyl-1H-pyrazol-4-yl)ethynyl)pyridin-2-yl)pyrimidin-4-amine formate]
IC50 [1, 15]: 4.2 nM
IC50 [1, 6]: 34.1 nM
IC50 [2, 16]: 0.03 nM
IC50 [2, 8]: 1.3 nM
IC50 [3, 17]: 0.1 nM
IC50 [3, 10]: 0.4 nM
IC50 [4, 18]: 2.3 nM
IC50 [4, 12]: 6.5 nM
IC50 [5, 19]: 8.6 nM
IC50 ([5]; IC50 WT (nM), 100 μM ATP): > 10000 nM

CC(C)(O)C1CN(c2cc(Nc3ccnc(-c4cnn(S(=O)(=O)C5CC5)c4)n3)ncc2C#Cc2cnn(CCF)c2)C1 [Example 36, 2-(1-(2-((2-(1-(Cyclopropylsulfonyl)-1H-pyrazol-4-yl)pyrimidin-4-yl)amino)-5-((1-(2-fluoroethyl)-1H-pyrazol-4-yl)ethynyl)pyridin-4-yl)azetidin-3-yl)propan-2-ol]
IC50 [1, 6]: 100 nM
IC50 [2, 8]: 3 nM
IC50 [3, 10]: 2.1 nM
IC50 [4, 12]: 25.5 nM
IC50 ([5]; IC50 WT (nM), 100 μM ATP): > 10000 nM

CC(C)CCNC1CCN(c2cc(Nc3ccnc(-c4cnn(S(=O)(=O)C5CC5)c4)n3)ncc2C#Cc2cnn(C)c2)CC1 [Example 125, 2-(1-(Cyclopropylsulfonyl)-1H-pyrazol-4-yl)-N-(4-(4-(isopentylamino)piperidin-1-yl)-5-((1-methyl-1H-pyrazol-4-yl)ethynyl)pyridin-2-yl)pyrimidin-4-amine]
IC50 [1, 6]: 330 nM
IC50 [2, 8]: 5.6 nM
IC50 [3, 10]: 5.6 nM
IC50 [4, 12]: 34.2 nM
IC50 ([5]; IC50 WT (nM), 100 μM ATP): > 10000 nM

C[C@]1(O)CC[C@@H](Nc2cc(Nc3ccnc(-c4cnn(S(=O)(=O)C5CC5)c4)n3)ncc2C#Cc2cnn(CC(F)F)c2)CC1 [Example 323, (1s,4s)-4-((2-((2-(1-(Cyclopropylsulfonyl)-1H-pyrazol-4-yl)pyrimidin-4-yl)amino)-5-((1-(2,2-difluoroethyl)-1H-pyrazol-4-yl)ethynyl)pyridin-4-yl)amino)-1-methylcyclohexan-1-ol]
IC50 [1, 15]: 14.3 nM
IC50 [1, 6]: 184 nM
IC50 [2, 16]: 0.2 nM
IC50 [2, 8]: 0.8 nM
IC50 [3, 17]: 0.3 nM
IC50 [3, 10]: 0.6 nM
IC50 [4, 18]: 4.5 nM
IC50 [4, 12]: 7.4 nM
IC50 [5, 19]: 146 nM
IC50 ([5]; IC50 WT (nM), 100 μM ATP): > 10000 nM

CC1(CO)CCN(c2cc(Nc3ccnc(N4CCN(S(=O)(=O)C5CC5)CC4)n3)ncc2C#Cc2cnn(C(F)(F)F)c2)CC1 [Example 449, (1-(2-((2-(4-(Cyclopropylsulfonyl)piperazin-1-yl)pyrimidin-4-yl)amino)-5-((1-(trifluoromethyl)-1H-pyrazol-4-yl)ethynyl)pyridin-4-yl)-4-methylpiperidin-4-yl)methanol]
IC50 [1, 20]: 69.3 nM
IC50 [2, 21]: 51.7 nM
IC50 [3, 22]: 165 nM
IC50 [4, 23]: 268 nM
IC50 [5, 24]: 564 nM

Cn1cc(C#Cc2cnc(Nc3ccnc(-c4cnn(S(=O)(=O)C5CC5)c4)n3)cc2N2CCC(NS(C)(=O)=O)CC2)cn1 [Example 63, N-(1-(2-((2-(1-(Cyclopropylsulfonyl)-1H-pyrazol-4-yl)pyrimidin-4-yl)amino)-5-((1-methyl-1H-pyrazol-4-yl)ethynyl)pyridin-4-yl)piperidin-4-yl)methanesulfonamide]
IC50 [1, 6]: 83.4 nM
IC50 [2, 8]: 2.4 nM
IC50 [3, 10]: 1.2 nM
IC50 [4, 12]: 23.1 nM
IC50 ([5]; IC50 WT (nM), 100 μM ATP): > 10000 nM

CN(C)CCn1cc(C#Cc2cnc(Nc3ccnc(-c4cnn(S(=O)(=O)C5CC5)c4)n3)cc2N2CCC(NCCF)CC2)cn1 [Example 144, 2-(1-(Cyclopropylsulfonyl)-1H-pyrazol-4-yl)-N-(5-((1-(2-(dimethylamino)ethyl)-1H-pyrazol-4-yl)ethynyl)-4-(4-((2-fluoroethyl)amino)piperidin-1-yl)pyridin-2-yl)pyrimidin-4-amine]
IC50 [1, 6]: 34.3 nM
IC50 [1, 7]: 0.8 nM
IC50 [2, 8]: 0.4 nM
IC50 [2, 9]: 0.1 nM
IC50 [3, 10]: 0.3 nM
IC50 [3, 11]: 0.3 nM
IC50 [4, 12]: 0.9 nM
IC50 [4, 13]: 0.8 nM
IC50 ([5]; IC50 WT (nM), 100 μM ATP): > 10000 nM
IC50 [5, 14]: 23.8 nM

CC(=O)N1CCC(n2cc(C#Cc3cnc(Nc4ccnc(-c5cnn(S(=O)(=O)C6CC6)c5)n4)cc3N3CCCC(O)C3)cn2)CC1 (centres unmarked) [Example 114, 1-(4-(4-((6-((2-(1-(Cyclopropylsulfonyl)-1H-pyrazol-4-yl)pyrimidin-4-yl)amino)-4-(3-hydroxypiperidin-1-yl)pyridin-3-yl)ethynyl)-1H-pyrazol-1-yl)piperidin-1-yl)ethan-1-one]
IC50 [1, 6]: 13.7 nM
IC50 [1, 7]: 2.6 nM
IC50 [2, 8]: 1.7 nM
IC50 [2, 9]: 0.6 nM
IC50 [3, 10]: 0.5 nM
IC50 [3, 11]: 0.5 nM
IC50 [4, 12]: 9.5 nM
IC50 [4, 13]: 5.4 nM
IC50 ([5]; IC50 WT (nM), 100 μM ATP): > 10000 nM
IC50 [5, 14]: 17.4 nM

CN(C)CCCn1cc(C#Cc2cnc(Nc3ccnc(-c4cnn(S(=O)(=O)C5CC5)c4)n3)cc2N2CCC(F)(CO)CC2)cn1 [Example 121, (1-(2-((2-(1-(Cyclopropylsulfonyl)-1H-pyrazol-4-yl)pyrimidin-4-yl)amino)-5-((1-(3-(dimethylamino)propyl)-1H-pyrazol-4-yl)ethynyl)pyridin-4-yl)-4-fluoropiperidin-4-yl)methanol]
IC50 [1, 6]: 4.1 nM
IC50 [1, 7]: 0.3 nM
IC50 [2, 8]: 0.3 nM
IC50 [2, 9]: 0.1 nM
IC50 [3, 10]: 0.3 nM
IC50 [3, 11]: 0.3 nM
IC50 [4, 12]: 0.5 nM
IC50 [4, 13]: 0.3 nM
IC50 ([5]; IC50 WT (nM), 100 μM ATP): 783 nM
IC50 [5, 14]: 3.1 nM

O=S(=O)(C1CC1)n1cc(-c2nccc(Nc3cc(NC4CCC(O)CC4)c(C#CC4CCCO4)cn3)n2)cn1 (centres unmarked) [Example 376, (1s,4s)-4-((2-((2-(1-(Cyclopropylsulfonyl)-1H-pyrazol-4-yl)pyrimidin-4-yl)amino)-5-((tetrahydrofuran-2-yl)ethynyl)pyridin-4-yl)amino)cyclohexan-1-ol]
IC50 [1, 6]: 102 nM
IC50 [1, 20]: 7.8 nM
IC50 [2, 8]: 1.1 nM
IC50 [2, 21]: 3.4 nM
IC50 [3, 10]: 0.5 nM
IC50 [3, 22]: 0.3 nM
IC50 [4, 12]: 2.5 nM
IC50 [4, 23]: 1.4 nM
IC50 ([5]; IC50 WT (nM), 100 μM ATP): > 10000 nM
IC50 [5, 24]: 15.1 nM

CC(C)Nc1cc(Nc2ccnc(-c3cnn(S(=O)(=O)C4CC4)c3)n2)ncc1C#CCN1CCOCC1 [Example 202, N^2-(2-(1-(Cyclopropylsulfonyl)-1H-pyrazol-4-yl)pyrimidin-4-yl)-N^4-isopropyl-5-(3-morpholinoprop-1-yn-1-yl)pyridine-2,4-diamine]
IC50 [1, 15]: 92.7 nM
IC50 [2, 16]: 1.6 nM
IC50 [3, 17]: 2.2 nM
IC50 [4, 18]: 43.4 nM
IC50 [5, 19]: 312 nM
